# Measured values from patent EP3714904B1, “IMINODIACETIC ACID SUBSTITUTED CYCLODEXTRINS AS POTENTIATORS OF BETA-LACTAM ANTIBIOTICS” (NATIONAL CENTER FOR SCIENTIFIC RESEARCH "DEMOKRITOS" (NCSRD), priority 2019, dated 2020).
# Assays:
# [1] = target: NDM-1 (Klebsiella pneumoniae, UniProt C7C422); test: Spectrophotometric IC50 determination against MBL; assay type: biochemical; conditions: ± 0.32
# [2] = Plasma levels of metal ions, creatinine and urea in infected mice; assay type: in vivo, CD-1 mice; conditions: 30 mg/kg meropenem + 20 mg/kg β-IDACYD every 2 h for 24 h, 0 h, 6 h, 140 h
# Experimental: Example 10. Examination of the cross-reactivity of β-IDACYD with vital metal ions in mouse plasma and of induction of immune responses in infected mice: In order to examine a potential cross-reactivity of the β-IDACYD with metal ions necessary for the maintenance of homeostasis, plasma was isolated by centrifugation (3,000 rpm, 5 min) from all blood samples collected. The plasma levels of four metal ions (calcium, magnesium, phosphate and iron) as well as the levels of creatinine and urea were determined using an Olympus AU 600 analyser. […] In Fig. 8 is shown the plasma concentration in mg/dL of calcium, iron, phosphate and magnesium ions, as well as urea and creatinine derived from CD-1 mice infected with a lethal dose (10^7 CFU) of NDM-1 producing K. pneumoniae strain LA26. […] Treatment was given every 2h for a 24h period and blood was drawn and plasma was isolated at time points 0h, 6h, 24h and 140h (7d) post treatment initiation.
# [3] = Luminex assay of lymphokines, cytokines and pro-inflammatory proteins in plasma of infected mice; assay type: in vivo; conditions: plasma from all the sepsis therapeutic schemes
# Text: As a way to further measure and evaluate the in-vivo potency and safety of β-IDACYD, we determined the levels of a series of lymphokines, cytokines, and pro-inflammatory indicator proteins. The levels of Th17 immune response related ILs 17E, 6, 1β, 4, 21, 10, 17A, 17F, IFN-g, MIP-3a, TNF-a and TNF-b were all determined in a luminex assay using plasma isolated from the mice involved in all the sepsis therapeutic schemes. […] The observation was supported by the levels of the inflammatory response proteins CRP and SAP.
# Chain of NDM-1 (C7C422 29-270, looked up): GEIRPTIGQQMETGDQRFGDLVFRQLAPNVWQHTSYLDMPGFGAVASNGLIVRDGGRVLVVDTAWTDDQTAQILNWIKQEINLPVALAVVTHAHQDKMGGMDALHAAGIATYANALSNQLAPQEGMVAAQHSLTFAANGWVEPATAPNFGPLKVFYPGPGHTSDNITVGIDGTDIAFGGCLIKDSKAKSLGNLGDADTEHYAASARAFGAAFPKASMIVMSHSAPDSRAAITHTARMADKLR
compound,measurement,setting,value
CO[C@@H]1[C@@H](OC)[C@H]2O[C@H]3[C@H](OC)[C@@H](OC)[C@@H](O[C@H]4[C@H](OC)[C@@H](OC)[C@@H](O[C@H]5[C@H](OC)[C@@H](OC)[C@@H](O[C@H]6[C@H](OC)[C@@H](OC)[C@@H](O[C@H]7[C@H](OC)[C@@H](OC)[C@@H](O[C@H]8[C@H](OC)[C@@H](OC)[C@@H](O[C@@H]1[C@@H](CN(CC(=O)O)CC(=O)O)O2)O[C@@H]8CN(CC(=O)O)CC(=O)O)O[C@@H]7CN(CC(=O)O)CC(=O)O)O[C@@H]6CN(CC(=O)O)CC(=O)O)O[C@@H]5CN(CC(=O)O)CC(=O)O)O[C@@H]4CN(CC(=O)O)CC(=O)O)O[C@@H]3CN(CC(=O)O)CC(=O)O [β-IDACYD],IC50,[1],1630 nM
same,"plasma levels of calcium, magnesium, phosphate, iron, creatinine and urea",[2],well within the control group range at all times
same,"immune response (Th17 related ILs, IFN-g, MIP-3a, TNF-a, TNF-b; CRP, SAP)",[3],at no times induced an immune response
